Assays:
JAK1 = JAK1 (Homo sapiens, UniProt P23458); experiment: Kinase activity test (γ33P-ATP isotopic method), JAK1; type: biochemical
Protocol: (§1) This experiment adopted a γ^33p-ATP isotopic test method to test the inhibitory effect of a compound on kinases JAK1, JAK2, JAK3 and TYK2, and obtained a half inhibitory concentration IC50 of the compound for inhibiting activity of the kinase.
(§2) 20 mM 4-hydroxyethylpiperazine ethanesulfonic acid buffer (Hepes, pH 7.5), 10 mM magnesium chloride (MgCl2), 1 mM ethylene glycol diethyl ether diamine tetraacetic acid (EGTA), 0.02% dodecyl polyethylene glycol ether (Brij35), 0.02 mg/ml bovine serum albumin (BSA), 0.1 mM sodium vanadate (Na3VO4), 2 mM dithiothreitol (DTT), and 1% dimethylsulfoxide (DMSO).
(§3) A compound is dissolved with 100% DMSO to a specific concentration, and then subjected to gradient dilution by an automatic sampling device to obtain the samples to be tested with different concentrations (DMSO solutions).
(§4) 3.1 diluting the reaction substrate with the basic reaction buffer;
(§5) 3.2 adding the kinase into the substrate solution, and gently mixing well;
(§6) 3.3 adding, by the automatic sampling system, the 100% DMSO diluted compounds with different concentrations into the kinase solution, and incubating for 20 min at room temperature; and
(§7) 3.4 adding ^33p-ATP (10 μM, 10 μCi/μl) at room temperature to initiate the kinase reaction for a duration of 2 h.
(§8) The unreacted ATP and the reaction-generated […] in the reaction were removed by an ion exchange filtering system, and then the amount of radioactivity of ^33p isotope in the substrate was detected.
(§9) According to the amount of radioactivity, the kinase activities in the systems added with the inhibitors of different concentrations were calculated, to obtain the inhibitors' effects of the compounds of different concentrations on the kinase activity; and fitting was performed with graphpad prism to obtain the inhibitory IC50 values of the compounds.

JAK2 = JAK2 (Homo sapiens, UniProt O60674); experiment: Kinase activity test (γ33P-ATP isotopic method), JAK2; type: biochemical; settings: 33P-ATP 10 μM, 2 h reaction
JAK2, sequence (O60674 whole entry): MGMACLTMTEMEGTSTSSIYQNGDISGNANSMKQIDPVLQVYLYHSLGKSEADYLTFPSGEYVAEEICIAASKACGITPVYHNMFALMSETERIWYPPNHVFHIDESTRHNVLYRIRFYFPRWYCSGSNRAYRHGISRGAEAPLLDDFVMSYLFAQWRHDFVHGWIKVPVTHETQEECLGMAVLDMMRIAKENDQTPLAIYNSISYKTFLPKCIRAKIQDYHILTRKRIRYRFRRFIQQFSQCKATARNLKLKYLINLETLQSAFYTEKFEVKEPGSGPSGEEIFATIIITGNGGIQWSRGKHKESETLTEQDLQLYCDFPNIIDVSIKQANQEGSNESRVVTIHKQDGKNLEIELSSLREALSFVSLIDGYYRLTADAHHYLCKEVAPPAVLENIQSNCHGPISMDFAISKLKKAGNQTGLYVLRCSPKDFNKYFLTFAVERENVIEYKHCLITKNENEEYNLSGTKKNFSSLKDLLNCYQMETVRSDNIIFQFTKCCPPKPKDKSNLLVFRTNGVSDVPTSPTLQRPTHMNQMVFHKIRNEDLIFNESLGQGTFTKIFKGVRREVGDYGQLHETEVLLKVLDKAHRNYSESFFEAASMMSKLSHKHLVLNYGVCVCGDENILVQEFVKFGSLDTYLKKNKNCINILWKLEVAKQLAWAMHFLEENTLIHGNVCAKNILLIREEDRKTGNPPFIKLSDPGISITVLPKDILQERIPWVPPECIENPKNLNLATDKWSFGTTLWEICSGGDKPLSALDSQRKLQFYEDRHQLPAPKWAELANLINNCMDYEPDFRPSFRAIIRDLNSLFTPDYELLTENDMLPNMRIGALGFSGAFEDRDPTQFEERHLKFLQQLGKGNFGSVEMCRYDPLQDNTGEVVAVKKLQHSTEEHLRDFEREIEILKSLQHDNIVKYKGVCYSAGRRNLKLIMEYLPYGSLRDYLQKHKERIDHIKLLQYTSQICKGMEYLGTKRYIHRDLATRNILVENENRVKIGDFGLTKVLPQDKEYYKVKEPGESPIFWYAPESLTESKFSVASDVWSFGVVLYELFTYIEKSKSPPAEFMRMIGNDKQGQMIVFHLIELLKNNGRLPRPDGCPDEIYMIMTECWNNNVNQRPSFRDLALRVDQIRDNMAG
Protocol: as §1, §2, §3, §4, §5, §6, §7, §8, §9

TYK2 = TYK2 (Homo sapiens, UniProt P29597); experiment: Kinase activity test (γ33P-ATP isotopic method), TYK2; type: biochemical; settings: 33P-ATP 10 μM, 2 h reaction
TYK2, sequence (P29597 whole entry): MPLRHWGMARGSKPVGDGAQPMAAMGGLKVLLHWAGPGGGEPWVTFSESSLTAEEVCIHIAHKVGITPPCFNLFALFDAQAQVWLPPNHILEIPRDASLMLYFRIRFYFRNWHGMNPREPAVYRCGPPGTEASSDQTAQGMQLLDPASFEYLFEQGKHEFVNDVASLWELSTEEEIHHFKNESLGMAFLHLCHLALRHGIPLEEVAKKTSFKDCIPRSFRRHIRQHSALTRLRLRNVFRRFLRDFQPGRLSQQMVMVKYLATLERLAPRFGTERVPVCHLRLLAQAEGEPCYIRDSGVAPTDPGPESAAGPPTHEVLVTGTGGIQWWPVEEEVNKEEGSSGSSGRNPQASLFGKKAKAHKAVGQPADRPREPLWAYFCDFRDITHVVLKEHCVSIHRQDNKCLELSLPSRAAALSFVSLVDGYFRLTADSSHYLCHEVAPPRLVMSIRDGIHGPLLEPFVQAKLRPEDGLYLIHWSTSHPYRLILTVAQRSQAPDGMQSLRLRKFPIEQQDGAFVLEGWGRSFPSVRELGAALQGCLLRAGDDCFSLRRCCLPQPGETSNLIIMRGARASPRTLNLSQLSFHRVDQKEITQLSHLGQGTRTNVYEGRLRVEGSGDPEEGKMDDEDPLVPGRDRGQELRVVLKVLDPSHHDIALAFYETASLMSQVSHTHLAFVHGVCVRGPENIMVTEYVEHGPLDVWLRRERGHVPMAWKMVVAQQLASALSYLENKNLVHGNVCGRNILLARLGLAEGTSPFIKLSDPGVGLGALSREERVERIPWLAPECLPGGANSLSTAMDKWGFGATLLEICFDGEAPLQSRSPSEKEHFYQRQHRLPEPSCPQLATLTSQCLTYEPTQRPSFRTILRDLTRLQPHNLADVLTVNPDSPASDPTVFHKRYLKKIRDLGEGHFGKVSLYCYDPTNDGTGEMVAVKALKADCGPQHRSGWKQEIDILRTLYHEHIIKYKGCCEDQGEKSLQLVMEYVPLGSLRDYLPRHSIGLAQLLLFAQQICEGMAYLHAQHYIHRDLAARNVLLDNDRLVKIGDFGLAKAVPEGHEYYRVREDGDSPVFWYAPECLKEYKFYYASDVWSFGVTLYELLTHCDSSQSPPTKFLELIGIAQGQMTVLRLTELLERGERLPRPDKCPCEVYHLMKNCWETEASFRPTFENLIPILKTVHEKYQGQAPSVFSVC
Protocol: as §1, §2, §3, §4, §5, §6, §7, §8, §9

[1] = test system: DSS induced mouse ulcerative colitis model; experiment: Efficacy test in DSS induced mouse ulcerative colitis model; type: in vivo
Excerpt: Mice of 6-7 weeks old were randomly grouped, 6 mice per group. Purified water was provided ad libitum to the mice in a negative control group, and a 2% solution of dextran sulfate sodium (DSS) was provided ad libitum to the mice in other groups, for 7 consecutive days. During the modeling, medication was given according to the groups, once a day for 7 days (the treatment groups and the mouse numbers can be adjusted according to the specific situation). Within 8-10 days later, the DSS-containing water was replaced with purified water, provided ad libitum to the mice. The normal administration continued for 3 days.
From the first day of administration, the general conditions such as metal state, eating, drinking and activities of the mice were respectively observed every day, the mice were weighed every day, and the animal stools were collected, evaluated for their traits and subjected to the occult blood test. The disease activity index (DAI) of experimental animals within 1-10 days were comprehensively assessed.
Scoring was performed according to the above-mentioned standards. The disease activity index (DAI) of each mouse was obtained by summing the scores of weight loss, stool trait and occult blood condition, to evaluate the disease activity. DAI=(score of weight loss+score of stool trait+score of bloody stool)/3, ranging from 0-4.
The experimental data was processed statistically, and the data are all expressed as mean±SD or mean±SME. The SPSS13.0 software was used for statistical analysis, and the differences among the groups were compared with t test (equal variance) or t′ test (unequal variance).

[2] = test system: DNBS induced rat Crohn's disease model; experiment: Therapeutic activity in DNBS induced rat Crohn's disease model; type: in vivo; parameters: rat colon ulcer area: unit not given beside the values; settings: for colon weight-length ratio / rat colon ulcer area: 7 days, mean±SD; for colon weight-length ratio: colon weight (g)/length (cm) ratio×100, model group G2 14.6±5.1; for rat colon ulcer area: model group G2 1.54±2.00
Protocol: Male wistar rats of 4-5 weeks old were adaptively fed for 5 days, and two days before the experiment, randomly divided into 6 groups:
Blank control group: G1 (Normal), 4 normal rats were selected and only given with 30% ethanol, 10 mL/kg.
0.5 mL of 50 mg/mL DNBS (DNBS dissolved in 30% ethanol) was injected into the colon of rats to induce enteritis in rats, for 40 rats in total. Eight of them were selected as model group G2 (Model), and the remaining 32 rats were administrated.
Administration group: the rats with DNBS induced enteritis were administered with ABT494 and the compound of Example 2 respectively and divided into G3-G6 groups, 8 rats/group. G3: ABT494, 10 mg/kg-QD; G4: Example 2, 0.3 mg/kg-BID; G5: Example 2, 1 mg/kg-BID; and G6: Example 2, 3 mg/kg-BID.
The rats were fasted, but fed with water for 48 hours, and a 5% glucose salt solution (10 mL/kg) was used as an energy supplement for experimental animals during the fasting period, once a day. On the day of experimental modeling, the fasting rats were anesthetized with Choutet (25 mg/kg), and then 0.5 mL of 50 mg/mL DNBS was injected from the anus to left colic flexure of the rat (about 8 cm to the anus) to induce rat enteritis. All rats were kept in a […] for 15 min until they were awaken, to prevent the backflow of DNBS. From the day of the experimental modeling, medication was given for 7 days.
After the DNBS modeling, the weights of the animals were measured and recorded every day, the daily activities of the animals were observed, and the abnormalities were recorded. During the experiment, the stool state of the rats was scored every day. On day 7, the rats were anesthetized with isoflurane (3-5%), blood was taken from the orbit, and the serum was separated and stored at −80° C. All animals were euthanized by cervical vertebra dis location after suffocation from excessive CO2 inhalation. The abdomen was cut, the colorectum was take out and longitudinally dissected, and the stool trait in the colorectum was scored. The colorectum was thoroughly rinsed with ice-cold PBS and then the ulcer surface was observed. The length and weight and ulcer area of the colon were recorded, the weight-length ratio (colon weight (g)/length (cm) ratio×100) was calculated, and the overall picture was taken. All intestinal tissue was longitudinally divided into two parts, where one part was fixed with 4% neutral […] and embedded with paraffin, and the rest colon sample was cryopreserved at −80° C.
Excel and Graphapad software were used for statistical analysis, and the results were expressed as mean±SD.

JAK1, sequence (P23458 whole entry): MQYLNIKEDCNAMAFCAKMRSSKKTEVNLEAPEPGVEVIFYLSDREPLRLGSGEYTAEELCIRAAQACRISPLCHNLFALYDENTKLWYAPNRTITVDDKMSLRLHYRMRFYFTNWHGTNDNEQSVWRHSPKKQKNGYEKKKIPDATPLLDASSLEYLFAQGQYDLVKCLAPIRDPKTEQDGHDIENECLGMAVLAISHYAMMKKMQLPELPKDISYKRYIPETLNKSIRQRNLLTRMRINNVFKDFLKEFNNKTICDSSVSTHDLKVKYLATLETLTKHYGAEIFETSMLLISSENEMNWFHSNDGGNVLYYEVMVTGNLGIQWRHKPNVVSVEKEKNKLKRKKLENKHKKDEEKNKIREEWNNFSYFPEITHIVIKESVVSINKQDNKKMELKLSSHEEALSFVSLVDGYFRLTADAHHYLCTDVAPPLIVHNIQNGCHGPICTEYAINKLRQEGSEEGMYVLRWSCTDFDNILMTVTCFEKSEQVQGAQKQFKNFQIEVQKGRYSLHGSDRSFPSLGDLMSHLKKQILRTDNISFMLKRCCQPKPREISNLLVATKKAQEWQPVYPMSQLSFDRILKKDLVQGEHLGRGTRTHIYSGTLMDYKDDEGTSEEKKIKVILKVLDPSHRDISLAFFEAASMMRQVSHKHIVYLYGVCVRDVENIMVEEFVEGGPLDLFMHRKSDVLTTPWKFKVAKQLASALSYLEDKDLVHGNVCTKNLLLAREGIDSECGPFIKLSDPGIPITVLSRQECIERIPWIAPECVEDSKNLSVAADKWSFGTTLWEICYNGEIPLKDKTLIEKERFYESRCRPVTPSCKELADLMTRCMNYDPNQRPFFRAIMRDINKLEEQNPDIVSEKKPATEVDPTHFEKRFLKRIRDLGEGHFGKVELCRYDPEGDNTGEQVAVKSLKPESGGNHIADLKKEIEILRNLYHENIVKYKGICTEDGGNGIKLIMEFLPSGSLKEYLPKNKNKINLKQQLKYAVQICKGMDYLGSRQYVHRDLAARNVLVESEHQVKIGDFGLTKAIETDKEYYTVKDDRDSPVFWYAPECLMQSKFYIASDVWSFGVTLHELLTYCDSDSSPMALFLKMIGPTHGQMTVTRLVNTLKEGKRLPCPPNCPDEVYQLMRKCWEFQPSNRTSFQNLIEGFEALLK

IC50 (JAK1; 33P-ATP 10 μM, 2 h reaction): 0.15 nM
IC50 (JAK2): 3.69 nM
IC50 (TYK2): 1.49 nM
Structure (SMILES): NC(=O)c1cnc2[nH]ccc2c1NN1CCC[C@H](C(=O)NCC(F)F)C1 [Example 2, (S)-4-(3-(2,2-difluoroethylcarbamoyl)piperidine-1-amino)-1H-7-azaindole-5-carboxamide]
activity in inhibiting the JAK1 kinase compared with Tofacitinib (in words) (JAK1; conclusion from Table 1): higher activity in inhibiting the JAK1 kinase than the positive drug control Tofacitinib
DAI score on day 8 ([1]; 5 mg/kg group, once a day, mouse DSS model, DAI range 0-4): 1.5
effect on DSS induced enteritis in mice (in words) ([1]; relatively low dose): significant effect in inhibiting the DSS induced enteritis in mice
colon weight-length ratio ([2]; G4, 0.3 mg/kg-BID): 10.5±3.9
rat colon ulcer area ([2]; G4, 0.3 mg/kg-BID): 0.83±1.00
colon weight-length ratio ([2]; G5, 1 mg/kg-BID): 10.0±1.9
rat colon ulcer area ([2]; G5, 1 mg/kg-BID): 0.65±1.05
colon weight-length ratio ([2]; G6, 3 mg/kg-BID): 10.5±2.0
rat colon ulcer area ([2]; G6, 3 mg/kg-BID): 0.76±1.21
effect on DNBS induced enteritis of the rats (in words) ([2]; relatively low dose): significant effect in inhibiting the DNBS induced enteritis of the rats

Reference: patent US12304910B2, “Janus kinase (JAK) family inhibitor, preparation of same, and applications thereof” (JIANGSU VCARE PHARMATECH CO., LTD., priority 2019, dated 2025)
